According to ChEMBL document CHEMBL5465560, “Selectivity Literature for EUbOPEN Chemogenomic Library” (2024):

Tests used:
[1] = target: T1, Mitogen-activated protein kinase kinase kinase 5 (Homo sapiens) (UniProt Q99683); assay: Selectivity interaction (KinomeScan (DiscoverX)) EUB0001079a MAP3K5; conditions: at 1 µM
T1 sequence (whole entry): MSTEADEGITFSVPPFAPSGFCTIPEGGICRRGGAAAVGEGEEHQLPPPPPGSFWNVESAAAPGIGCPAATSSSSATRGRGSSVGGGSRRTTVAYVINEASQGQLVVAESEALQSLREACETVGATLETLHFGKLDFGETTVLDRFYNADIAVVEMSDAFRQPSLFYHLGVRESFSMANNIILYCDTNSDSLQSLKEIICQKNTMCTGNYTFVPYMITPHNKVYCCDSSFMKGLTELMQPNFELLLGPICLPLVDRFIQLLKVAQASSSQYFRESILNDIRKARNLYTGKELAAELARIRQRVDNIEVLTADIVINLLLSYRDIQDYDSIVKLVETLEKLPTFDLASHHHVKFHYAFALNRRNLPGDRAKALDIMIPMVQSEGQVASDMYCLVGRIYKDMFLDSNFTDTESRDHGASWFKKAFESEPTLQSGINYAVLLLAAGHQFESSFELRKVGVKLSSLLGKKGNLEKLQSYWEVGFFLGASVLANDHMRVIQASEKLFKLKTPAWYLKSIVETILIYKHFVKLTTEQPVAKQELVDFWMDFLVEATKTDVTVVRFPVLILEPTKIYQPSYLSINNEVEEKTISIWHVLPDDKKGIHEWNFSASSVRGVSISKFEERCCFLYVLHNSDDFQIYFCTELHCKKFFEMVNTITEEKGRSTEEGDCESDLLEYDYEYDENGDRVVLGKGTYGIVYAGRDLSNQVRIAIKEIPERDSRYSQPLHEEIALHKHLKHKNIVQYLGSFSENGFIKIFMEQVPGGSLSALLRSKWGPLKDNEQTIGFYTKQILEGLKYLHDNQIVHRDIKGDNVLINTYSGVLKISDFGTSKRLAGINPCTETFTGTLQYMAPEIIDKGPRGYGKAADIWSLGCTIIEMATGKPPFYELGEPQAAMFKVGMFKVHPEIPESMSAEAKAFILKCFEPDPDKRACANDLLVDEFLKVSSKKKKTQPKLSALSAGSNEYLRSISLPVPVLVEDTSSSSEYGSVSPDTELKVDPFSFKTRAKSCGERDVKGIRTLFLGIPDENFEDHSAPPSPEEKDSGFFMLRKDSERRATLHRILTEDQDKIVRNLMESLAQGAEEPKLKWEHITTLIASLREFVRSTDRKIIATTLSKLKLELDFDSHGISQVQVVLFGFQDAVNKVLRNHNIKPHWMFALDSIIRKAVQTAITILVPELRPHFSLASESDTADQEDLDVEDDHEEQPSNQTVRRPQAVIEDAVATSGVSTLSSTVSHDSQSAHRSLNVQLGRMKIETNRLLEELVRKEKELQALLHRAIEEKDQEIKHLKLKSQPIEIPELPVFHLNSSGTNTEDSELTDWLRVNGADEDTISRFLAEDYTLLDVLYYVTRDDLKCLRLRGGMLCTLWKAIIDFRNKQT

[2] = target: T2, Tyrosine-protein kinase receptor TYRO3 (Homo sapiens) (UniProt Q06418); assay: Selectivity interaction (KinomeScan (DiscoverX)) EUB0001079a TYRO3; conditions: at 1 µM
T2 sequence (whole entry): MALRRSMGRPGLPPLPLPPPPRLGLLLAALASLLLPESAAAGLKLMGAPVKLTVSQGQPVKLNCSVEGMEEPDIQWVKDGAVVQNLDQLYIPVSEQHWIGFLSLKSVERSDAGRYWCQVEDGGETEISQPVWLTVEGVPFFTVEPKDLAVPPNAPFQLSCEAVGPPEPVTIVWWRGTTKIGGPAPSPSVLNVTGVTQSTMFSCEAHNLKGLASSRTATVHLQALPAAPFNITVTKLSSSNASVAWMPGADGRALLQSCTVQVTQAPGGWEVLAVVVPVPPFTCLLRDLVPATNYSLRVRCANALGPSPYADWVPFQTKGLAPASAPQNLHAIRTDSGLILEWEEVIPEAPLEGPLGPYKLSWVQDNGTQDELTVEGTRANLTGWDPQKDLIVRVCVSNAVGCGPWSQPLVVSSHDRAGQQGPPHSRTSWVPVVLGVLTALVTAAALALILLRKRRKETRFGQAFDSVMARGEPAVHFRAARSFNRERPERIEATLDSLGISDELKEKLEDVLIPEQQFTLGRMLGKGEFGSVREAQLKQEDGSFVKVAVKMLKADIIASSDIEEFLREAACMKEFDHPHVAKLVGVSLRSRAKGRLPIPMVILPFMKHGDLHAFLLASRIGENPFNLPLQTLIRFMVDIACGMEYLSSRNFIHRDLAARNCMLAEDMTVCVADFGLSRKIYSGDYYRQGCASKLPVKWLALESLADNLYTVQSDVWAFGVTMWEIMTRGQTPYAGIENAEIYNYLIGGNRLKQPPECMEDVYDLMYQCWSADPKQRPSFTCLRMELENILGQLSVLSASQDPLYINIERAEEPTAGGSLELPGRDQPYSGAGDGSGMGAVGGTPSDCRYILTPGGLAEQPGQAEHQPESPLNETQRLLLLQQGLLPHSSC

[3] = target: T3, Serine/threonine-protein kinase BRSK1 (Homo sapiens) (UniProt Q8TDC3); assay: Selectivity interaction (ProQinase) EUB0000171b BRSK1
T3 sequence (whole entry): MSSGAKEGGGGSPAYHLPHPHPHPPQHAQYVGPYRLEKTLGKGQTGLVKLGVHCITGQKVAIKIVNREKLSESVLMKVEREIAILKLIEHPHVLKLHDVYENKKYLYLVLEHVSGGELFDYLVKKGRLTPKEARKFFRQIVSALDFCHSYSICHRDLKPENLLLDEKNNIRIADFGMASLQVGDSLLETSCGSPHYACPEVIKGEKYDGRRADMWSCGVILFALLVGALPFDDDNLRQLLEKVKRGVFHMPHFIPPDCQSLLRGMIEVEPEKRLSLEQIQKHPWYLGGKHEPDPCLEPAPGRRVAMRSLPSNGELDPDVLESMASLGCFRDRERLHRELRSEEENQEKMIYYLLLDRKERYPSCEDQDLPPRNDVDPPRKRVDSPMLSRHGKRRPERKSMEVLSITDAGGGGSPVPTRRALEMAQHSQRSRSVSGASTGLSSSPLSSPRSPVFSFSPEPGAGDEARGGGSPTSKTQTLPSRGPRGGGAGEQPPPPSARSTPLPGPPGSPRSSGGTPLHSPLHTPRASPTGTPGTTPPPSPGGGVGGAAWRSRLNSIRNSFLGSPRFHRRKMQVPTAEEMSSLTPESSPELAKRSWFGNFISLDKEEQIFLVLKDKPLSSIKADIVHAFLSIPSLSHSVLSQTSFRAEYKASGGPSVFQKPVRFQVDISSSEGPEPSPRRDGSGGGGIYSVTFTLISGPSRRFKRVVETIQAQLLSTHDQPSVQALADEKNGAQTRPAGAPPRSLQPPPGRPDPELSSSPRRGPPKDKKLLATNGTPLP

% of control ([3]; at 1 µM) [%] | % of control ([3]; at 5 µM) [%] | Structure (SMILES) | % of control [1] [%] | % of control [2] [%]
 |  | Nc1cnc(N2CCc3cc(S(=O)(=O)Nc4c(F)cc(Cl)cc4F)cc(N4CCCC4=O)c32)nc1 [TP-020n] | 83 | 100
107 | 95 | C=CC(=O)Nc1cccc(C(=O)Nc2ccc(Nc3cc(-c4[nH]c(SC)nc4C)ccn3)cc2)c1 |  | 
